Test results as given in patent US8183287B2, “Pharmaceutical formulations and compositions of a selective antagonist of either CXCR2 or both CXCR1 and CXCR2 and methods of using the same for treating inflammatory disorders” (Schering Corporation, priority 2006, dated 2012).

Columns and labels:
[1] = clinical study in subjects with moderate to severe COPD; format: in vivo, human; conditions: subjects with moderate to severe COPD, 3, 10, 30 mg, 12 weeks
Procedure: This study, illustrated schematically in FIG. 4, is a double-blind, placebo-controlled, randomized, two-part study in subjects with moderate to severe COPD. Part 1 is a double-blind, placebo-controlled, randomized, rising-dose study consisting of four treatment groups enrolled in three cohorts (FIG. 4A). The treatment period for each cohort is 12 weeks in duration. […] After completing the safety analyses for Part 1 for Cohorts 1-3, Part 2 is conducted as detailed below. Part 2 is a double-blind, placebo-controlled, randomized, parallel group study consisting of four treatment groups enrolled as one cohort (FIG. 4B). The treatment period for Cohort 4 is 12 weeks in duration. […] Efficacy analyses are based solely on data collected from Part 2, Cohort 4 wherein the primary efficacy parameters measured are changes from Baseline in FEV1 and changes from Baseline in SCDS, both examined as longitudinal averages over the 12-week treatment period. […]

[2] = both, human, in vivo
[3] = tested on: neutrophil recruitment to the pleural cavities; assay: neutrophil recruitment to the pleural cavities in response to challenge, oral dosing; format: in vivo; conditions: orally administered
Excerpt: (§1) WO 02/083624 describes this compound (as Examples 360.31 and 405), process of making the same, as well as treatment of chemokine-related diseases and cancer using the same. Likewise, WO 03/080053 describes the treatment of chemokine-related diseases using this compound.

[4] = clinical; conditions: both, human
[5] = clinical study (i): single-dose oral pharmacokinetics, Formulation 1 capsules; format: in vivo, human; conditions: for AUC / Cmax / Tmax / half-life: both sexes, human, plasma; for AUC: po; for AUC / Cmax / Tmax / half-life / Tf Mean: healthy subjects; for Tmax: read-out: Tmax Median; for half-life: read-out: t1/2 Mean (converted)
[6] = tested on: carrageenan-induced paw edema; assay: carrageenan-induced paw edema; format: in vivo; conditions: rats, compared with NSAIDs
Excerpt: as §1

[7] = tested on: histological changes in arthritic joints; assay: histological changes in arthritic joints, prolonged treatment; format: in vivo; conditions: rats
Excerpt: as §1

[8] = clinical study (ii): single-dose 30 mg, fasted or fed subjects, Formulation 1 capsules; format: in vivo, human; conditions: single oral dose 30 mg; for Cmax / AUC / half-life / Tmax: both sexes, human, plasma, po, 30 mg; for Cmax / AUC / half-life / Tmax / Tf Mean: healthy subjects; for half-life: read-out: t1/2 Mean; for Tmax: read-out: Tmax Median
[9] = tested on: neutrophil recruitment to the lungs; assay: neutrophil recruitment to the lungs in response to challenge, oral dosing; format: in vivo; conditions: orally administered
Excerpt: as §1

[10] = tested on: pulmonary mucin production; assay: pulmonary mucin production, prolonged treatment; format: in vivo
Excerpt: as §1

[11] = clinical study in subjects with severe psoriasis; format: in vivo, human; conditions: 28 days
Procedure: This study, illustrated schematically in FIG. 6A, was designed as a prospective, randomized, double-blind, placebo-controlled, parallel-group study in subjects with moderate to severe psoriasis.
Each treatment is administered for 28 days. After twelve patients have completed dosing, a determination is made on the progression of the study as outlined in FIG. 6B.
Clinical Assessment. At Screening, Baseline, and Days 1, 8, 15, 29, 36, and 57 the clinical psoriasis activity (PASI and physician global assessment) is determined for each patient.
Efficacy Analyses: The primary efficacy endpoint is the response defined as a ≧50% decrease from baseline in the PASI at the end of 28 days of treatment as well as PGA. The data for the secondary endpoints detailed below are listed and summarized by treatment group using descriptive statistics. Specifically, • percent reduction on Day 28 relative to baseline of psoriatic plaque cellularity, with subpopulation analysis of neutrophils (CD50, Cathepsin G) and T-lymphocytes (CD3+, CD4+, CD8+) • change from baseline in mRNA expression of Gro-α, IL-8, and CXCR2 in the psoriatic plaque and peripheral blood • change from baseline in plasma chemokine concentrations including Gro-α and IL-8

[12] = single oral dose 150 mg (+Filgrastim 300 μg)

Median max values [2]: 0.5 to 2 h
Vd/F ([4]; in vivo): 1470 to 2200 L
half-life ([4]; plasma, oral): 11.3 to 22.9 h
AUC ([5]; 10 mg, single oral dose 10 mg, read-out: AUC (tf) Mean): 162 ng·h/mL
AUC ([5]; 50 mg, single oral dose 50 mg, n = 4, read-out: AUC(I) Mean): 768 ng·h/mL
AUC ([5]; 50 mg, single oral dose 50 mg, read-out: AUC (tf) Mean): 665 ng·h/mL
AUC ([5]; 100 mg, single oral dose 100 mg, read-out: AUC (tf) Mean): 827 ng·h/mL
AUC ([5]; 100 mg, single oral dose 100 mg, read-out: AUC(I) Mean): 878 ng·h/mL
AUC ([5]; 150 mg, single oral dose 150 mg, read-out: AUC (tf) Mean): 1530 ng·h/mL
AUC ([5]; 150 mg, single oral dose 150 mg, read-out: AUC(I) Mean): 1640 ng·h/mL
AUC ([5]; 200 mg, single oral dose 200 mg, read-out: AUC (tf) Mean): 1730 ng·h/mL
AUC ([5]; 200 mg, single oral dose 200 mg, read-out: AUC(I) Mean): 1810 ng·h/mL
AUC ([5]; single oral dose 150 mg (+Filgrastim 300 μg), read-out: AUC (tf) Mean): 1320 ng·h/mL
AUC ([5]; single oral dose 150 mg (+Filgrastim 300 μg), read-out: AUC(I) Mean): 1380 ng·h/mL
Cmax ([5]; single oral dose 10 mg): 73.8 ng/mL
Tmax ([5]; single oral dose 10 mg): 1 h
Cmax ([5]; single oral dose 50 mg): 153 ng/mL
half-life ([5]; single oral dose 50 mg, n = 4): 15.8 h
Tmax ([5]; single oral dose 50 mg): 0.75 h
Cmax ([5]; single oral dose 100 mg): 261 ng/mL
Tmax ([5]; single oral dose 100 mg): 0.75 h
half-life ([5]; single oral dose 100 mg): 11.8 h
Cmax [5, 12]: 292 ng/mL
Tmax [5, 12]: 0.75 h
half-life [5, 12]: 13 h
Cmax ([5]; single oral dose 150 mg): 364 ng/mL
Tmax ([5]; single oral dose 150 mg): 0.75 h
half-life ([5]; single oral dose 150 mg): 16.7 h
Cmax ([5]; single oral dose 200 mg): 416 ng/mL
Tmax ([5]; single oral dose 200 mg): 0.625 h
half-life ([5]; single oral dose 200 mg): 11.3 h
increase of Cmax and AUC with dose ([5]; from 10 to 200 mg): dose-related, but not dose-proportional
Tf Mean ([5]; single oral dose 10 mg): 14 h
Tf Mean ([5]; single oral dose 50 mg): 46 h
Tf Mean ([5]; single oral dose 100 mg): 38 h
Tf Mean [5, 12]: 58 h
Tf Mean ([5]; single oral dose 150 mg): 64 h
Tf Mean ([5]; single oral dose 200 mg): 52 h
Cmax ([8]; fasted): 147 ng/mL
AUC ([8]; fasted, n = 10, read-out: AUC(I) Mean): 563 ng·h/mL
half-life ([8]; fasted, n = 10): 20.8 h
AUC ([8]; fasted, read-out: AUC (tf) Mean): 484 ng·h/mL
Tmax ([8]; fasted): 0.75 h
Cmax ([8]; fed): 122 ng/mL
AUC ([8]; fed, n = 7, read-out: AUC(I) Mean): 572 ng·h/mL
half-life ([8]; fed, n = 7): 22.9 h
AUC ([8]; fed, read-out: AUC (tf) Mean): 489 ng·h/mL
Tmax ([8]; fed): 2 h
mean Cmax with food lower than Compound I alone [8]: 17%
Tf Mean ([8]; fasted): 40 h
Tf Mean ([8]; fed): 32.3 h
Structure (SMILES): CC[C@@H](Nc1c(Nc2cccc(C(=O)N(C)C)c2O)c(=O)c1=O)c1ccc(C)o1 [Compound I]
sputum neutrophil and peripheral blood neutrophils [1]: reduction in sputum neutrophil and peripheral blood neutrophils
neutrophil recruitment to the pleural cavities ([3]; mice): effectively blocks
neutrophil recruitment to the pleural cavities ([3]; rats): effectively blocks
effect of 300 μg filgrastim on the pharmacokinetic profile ([5]; 150 mg Compound I followed by filgrastim): did not alter the pharmacokinetic profile
ability to inhibit carrageenan-induced paw edema [6]: compares very favorably with NSAIDs
histological changes in arthritic joints [7]: blocks
neutrophil recruitment to the lungs ([9]; mice): effectively blocks
neutrophil recruitment to the lungs ([9]; monkeys): effectively blocks
neutrophil recruitment to the lungs ([9]; rats): effectively blocks
pulmonary mucin production ([10]; mice): blocks
pulmonary mucin production ([10]; rats): blocks
PASI [11]: reduction in PASI
